Entries after “also recorded” stand apart in the source; their conditions may differ. Read-outs that look alike come from different tables or passages of the source.
Tests used:
[1] = system: FADD-deficient Jurkat T cells treated with TNF-α; experiment: Inhibition of necroptosis (CICD) in FADD-deficient Jurkat T cells treated with TNF-α, ATP-based viability; format: cell-based, human
U937 cells = experiment: Necrosis of U937 cells induced by TNFα and zVAD.fmk (primary and secondary screen), ATP assay; format: cell-based, human; conditions: U937, 72 hours
Protocol: We plated U937 cells in 384-well plates at 5,000-10,000 cells per well in 40-μl phenol red-free RPMI 1640 medium containing 100 μM zVAD.fmk and 40 ng ml^−1 human TNFα using a Multidrop dispenser (Thermo Electron). We added 100 nl of the DiverSetE (5 mg ml^−1 in DMSO, Chembridge) using a Seiko-based custom-built pin transfer robot (Institute of Chemistry and Cell Biology, Harvard Medical School). After 72 hours, we assessed cell viability using a luminescence-based ATP assay (ATPLite-M, PerkinElmer). We also dispensed cells not treated with TNFα in each plate as a positive control. We purchased Nec-1 and other preliminary positive hits from Chembridge for individual retesting.
Using a known paradigm of death receptor mediated caspase-independent cell death in human U937 cells, we established a high-throughput screen in 384 well format for small molecule inhibitors of caspase-independent cell death (CICD). In this system, U937 cells were induced to undergo CICD in the presence of TNFα and zVAD.fmk, and the rate of cell death was determined by an ATP-Lite-M assay, a commercial luminescence-based assay measuring cellular ATP levels (Packard). U937 cells were chosen because these cells can be induced to undergo CICD very efficiently upon TNFα/zVAD treatment in the absence of additional, stress-inducing sensitizing stimuli, such as CHX, making this system perfectly suited for reliable identification of CICD inhibitors. Furthermore, rapid suspension growth kinetics of U937 cells results in the availability of large quantities of cells, which translates into robust signals ideal for high throughput screening. ATP-Lite-M assay was chosen because among all the different assay systems tested, it gives the most consistent and robust signal, which is also critical for high throughput screening. Exposure of U937 cells to TNFα alone led to partial cell death, whereas co-treatment with TNFα and caspase inhibitor zVAD.fmk produced significant increase in the amount of cell death and ATP loss consistent with the published observations. In addition, in the presence of zVAD.fmk, the morphology of cell loss changed from apoptosis with cell shrinkage, nuclear fragmentation, membrane blebbing to necrosis, characterized by cell swelling, increase in cytosolic density, and early loss of plasma membrane integrity. Other cell death assays, such as an MTT assay (mitochondrial metabolism) and Sytox assay (permeability of the plasma membrane), were used as alternative means to validate the screen, and consistently produced results similar to those obtained using ATP-Lite-M assay, which confirmed that the ATP-Lite-M assay can be used to accurately measure the extent of CICD.
In a primary screen, U-937 cells (5×10^5 or 7.5×10^5 cells/ml) were first exposed to zVAD-fmk (100 μM). Thirty minutes later the same cells were exposed to a chemical compound from the library (5 mg/ml, dissolved in 0.1-0.5 μl of DMSO, giving a final DMSO concentration of 0.3% to 1.5%). After an additional thirty minutes, TNFα (40 ng/ml) was added to the cell culture medium. The cells were then incubated at 37 C for 72 hours, and were then assayed for cellular ATP levels. […] Compounds which maintained cellular ATP levels were compounds which blocked necrosis triggered by zVAD-fmk and TNFα.
In a secondary screen, the compounds identified from the first screen, above, to decrease necrosis induced by zVAD-fmk and TNFα were assayed for their potency. Serial dilution of each chemical compound was performed and the compounds were administered to U-937 cells, as per the primary screen. The concentrations of each compound were 70 μM, 23 μM, 8 μM, and 2.5 μM. The level of necrosis occurring in response to zVAD-fmk, TNFα, and the various concentrations of chemical compounds was assayed as described above for the primary screen.

RAW264.7 cells = experiment: LPS/zVAD.fmk-induced CICD of RAW264.7 macrophage cells, ATP assay; format: cell-based, mouse; conditions: 10 ng/ml LPS, 50 or 100 μM zVAD.fmk, 30 μM Nec-1, 24 hours
Protocol: Cell viability was determined 24 hours later using an ATP assay. Values represent the percentages of live cells normalized to the control DMSO-treated cells.

LC3-II = LC3-II induction (autophagy marker) in cultured cells, western blotting; format: cell-based
Description: FIG. 11 is a set of gels showing the detection of cleaved LC3 in CICD of cultured cells and in ischemic brain injury. […] Equal amounts of cellular proteins were subjected to SDS-PAGE and western blotting with anti-LC3 and tubulin antibodies. Arrows point to the LC3II. […] Isoflurane-anesthetized SV-129 mice were subjected to two hours transient middle cerebral artery (MCA) occlusion by the intraluminal filament techniques. Ischemic and contralateral areas of the brain were collected at indicated times following MCA, lysed in RIPA buffer and equal amount of total protein were subjected to western blotting using anti-LC3 and tubulin antibodies. FIG. 11C is similar to FIG. 11B, except that mice were injected with 2 μL of 4 mM 7-Cl-Nec-1 icy at four and six hours, and brains were collected at eight hours after occlusion.
In this and subsequent panels, cell viability was determined via ATP assay. Numbers represent viability normalized to that of the DMSO-treated cells in the absence of TNFα and menadione. Throughout, error bars represent standard deviations. […] Representative images are shown. […] The ratio of LC3-II to tubulin signals was calculated (“Ratio”) and normalized to the value in the control sample. […] In FIG. 28H, expression of beclin-1 (“Bec”) and tubulin (“Tub”) in the stable populations of cells in FIG. 28G was analyzed by western blotting.

methylthiohydantoin-tryptophane [Nec-1]
EC50 ([1]; 10 ng/mL human TNF-α, 24 hours, ATP-based viability, EC50 ± SD from at least two independent experiments, read-out: EC50 (μM) for inhibition of necroptosis): 0.05 µM | antinecroptotic (anti-CICD) activity, in words ([1]; FADD-deficient Jurkat cells, TNFα): allowed proliferation of TNFα-treated FADD-deficient cells at a rate indistinguishable from untreated cells; also recorded: prevented the death of TNFα-treated FADD-deficient Jurkat cells | EC50 ([1]; Jurkat FADD deficient cells treated with TNFα, read-out: EC50): 0.494 µM | EC50 ([1]; concentration required to rescue 50% of cell death, TNFα for 36 hours, ATP assay, read-out: EC50): 0.494 µM | inhibition of necrosis induced by TNFα/zVAD.fmk, in words (U937 cells): inhibition of cell death of U937 cells treated with TNFα and zVAD.fmk for 72 hours; also recorded: provided expected protection against TNFα/zVAD.fmk; also recorded: efficiently blocked necroptotic death in U937 cells in a concentration-dependent fashion | protection from LPS/zVAD.fmk toxicity, in words (RAW264.7 cells): protects from CICD induced by LPS in macrophage cells; also recorded: efficiently inhibited LPS-mediated sensitization of RAW264.7 cells to dose-dependent toxicity of zVAD.fmk | LC3-II induction caused by rapamycin, in words (LC3-II; BALB/c 3T3 cells, 2 μM rapamycin): had no effect on the LC3-II induction caused by rapamycin | necroptotic LC3-II induction in cells, in words (LC3-II; necroptotic stimuli (TNFα, TNFα-zVAD.fmk, FasL-zVAD.fmk)): the appearance of LC3II was efficiently inhibited by Nec-1; also recorded: efficiently blocked the necroptotic LC3-II induction
